Assay results taken from patent publication US11091497B2, “Pyrano[3,4-b]pyrazine kappa opioid receptor ligands for treating addiction, pruritus, pain, and inflammation” (The Rockefeller University, priority 2017, dated 2021).
Read-outs that look alike come from different tables or passages of the source.

Tests used:
[1] = molecular target: T1, human kappa opioid receptors (Homo sapiens, UniProt P41145); assay: [35S]GTPγS stimulation, membranes from U2OS cells; type: biochemical; settings: for Emax: read-out: GTPγS stimulation % efficacy
T1 construct: expressed in transfected cells; host or cells: U2OS
Description: Membranes from cells stably expressing kappa, mu or delta opioid receptor constructs (PathHunter U2OS hOPRK1, CHO-K1 rOPRM1 and CHO-K1 OPRD1 β-arrestin cell line, DiscoverX, Fremont, Calif., USA) were used. Cells were scraped from tissue culture plates, homogenized with a tissue tearor homogenizer in membrane buffer (10 mM Tris, 100 mM NaCl, and 1 mM EDTA; pH 7.4), and centrifuged at 20,000 g for 30 minutes at 4° C. and frozen at −80° C. until use. Prior to use, the pellets were resuspended in binding buffer (50 mm Tris, 100 mm NaCl, pH 7.4), homogenized with a dounce homogenizer and […] incubated with 1.0 nM of the appropriate tritiated ligand ([^3H]U69,593, [^3H]DAMGO or [^3H]DPDPE for kappa, mu or delta binding, respectively) and the appropriate concentration of compound for 60 minutes at 30° C. Membranes with bound tritiated ligand were collected on Whatman GF/B filter paper (Brandel, Gaithersburg, Md., USA) utilizing a Brandel harvester. Bound tritiated ligand was quantified using a TriCarb-2900TR scintillation counter (Packard, Downers Grove, Ill., USA) following addition of 4 ml ReadySafe scintillation fluid (Beckman Coulter, Indianapolis, Ind., USA). Compiled data for each compound was normalized to the maximal binding in the absence of compound, with non-specific binding subtracted. Curve fitting was done in Microcal Origin 17.0 software using logistic sigmoidal fit, to determine IC50. GTPgammaS Membranes from U2OS cells stably expressing human kappa opioid receptors were used. Cells were scraped from tissue culture plates, homogenized with a tissue tearor homogenizer in membrane buffer (10 mM Tris, 100 mM NaCl, and 1 mM EDTA; pH 7.4), and centrifuged at 20,000 g for 30 minutes at 4° C. and frozen at −80° C. until use. Prior to use, the pellets were resuspended in assay buffer (50 mm Tris, 100 mm NaCl, 5 mM MgCl2, and 1 mM EDTA; pH 7.4) and homogenized with a dounce homogenizer and 50 μg incubated with 0.1 nM [35 S]GTPγS, 10 nM GDP, and the appropriate concentration of agonist for 20 minutes at 30° C. To test inhibition, all samples were incubated with 100 nM U69,593 as well as the appropriate concentration of compound. Membranes with bound [35 S]GTPγS were collected on Whatman GF/B filter paper (Brandel, Gaithersburg, Md., USA) utilizing a Brandel harvester. Bound [35 S]GTPγS was quantified using a TriCarb-2900TR scintillation counter (Packard, Downers Grove, Ill., USA) following addition of 4 mL ReadySafe scintillation fluid (Beckman Coulter, Indianapolis, Ind., USA). […] For each compound, curve fitting was done in Microcal Origin 17.0 software using logistic sigmoidal fit, to determine EC50 and maximal percent stimulation, which in turn was normalized to the maximal percent stimulation of the test full agonist compound U69,593 to determine % efficacy. β2-Arrestin Experiments were conducted using the PathHunter Detection Kit obtained from DiscoverX. Cells stably expressing kappa, mu or delta opioid receptor constructs (PathHunter U2OS hOPRK1, CHO-K1 rOPRM1 and CHO-K1 OPRD1 β-arrestin cell line, DiscoverX, Fremont, Calif., USA) were plated in 96- or 384-well plates. Cells were stimulated with the compounds for 90 minutes at 37° C. To test inhibition, all samples were incubated with 100 nM U69,593 as well as the appropriate concentration of compound. Cells were then incubated for 60 minutes in the presence of galoctosidase substrate, yielding chemiluminescent product. Chemiluminescence was measured using a Synergy Neo microplate reader (BioTek, Winooski, Vt., USA). Antagonism assays were done in the same manner, in the presence of 300 nM U69,593, 1 μM DAMGO or 1 μM DPDPE for KOP-R, MOP-R or DOP-R assays, respectively.

[2] = molecular target: T2, kappa opioid receptor (PathHunter U2OS hOPRK1 β-arrestin cell line) (Homo sapiens, UniProt P41145); assay: β-arrestin coupling (PathHunter Detection Kit); type: cell-based; settings: for Emax at 10 µM: U2OS; for β-arrestin coupling % efficacy: maximal, normalized to U69,593; for β-arrestin coupling % efficacy / β-arrestin coupling EC50: No stim = no stimulation at highest dose tested, 10,000 nM; for β-arrestin coupling EC50: 90 minutes at 37° C.
T2 construct: host or cells: U2OS (PathHunter U2OS hOPRK1 β-arrestin cell line)
Description: (§1) Membranes from cells stably expressing kappa, mu or delta opioid receptor constructs (PathHunter U2OS hOPRK1, CHO-K1 rOPRM1 and CHO-K1 OPRD1 β-arrestin cell line, DiscoverX, Fremont, Calif., USA) were used. Cells were scraped from tissue culture plates, homogenized with a tissue tearor homogenizer in membrane buffer (10 mM Tris, 100 mM NaCl, and 1 mM EDTA; pH 7.4), and centrifuged at 20,000 g for 30 minutes at 4° C. and frozen at −80° C. until use. Prior to use, the pellets were resuspended in binding buffer (50 mm Tris, 100 mm NaCl, pH 7.4), homogenized with a dounce homogenizer and […] incubated with 1.0 nM of the appropriate tritiated ligand ([^3H]U69,593, [^3H]DAMGO or [^3H]DPDPE for kappa, mu or delta binding, respectively) and the appropriate concentration of compound for 60 minutes at 30° C. Membranes with bound tritiated ligand were collected on Whatman GF/B filter paper (Brandel, Gaithersburg, Md., USA) utilizing a Brandel harvester. Bound tritiated ligand was quantified using a TriCarb-2900TR scintillation counter (Packard, Downers Grove, Ill., USA) following addition of 4 ml ReadySafe scintillation fluid (Beckman Coulter, Indianapolis, Ind., USA). Compiled data for each compound was normalized to the maximal binding in the absence of compound, with non-specific binding subtracted. Curve fitting was done in Microcal Origin 17.0 software using logistic sigmoidal fit, to determine IC50. GTPgammaS Membranes from U2OS cells stably expressing human kappa opioid receptors were used. Cells were scraped from tissue culture plates, homogenized with a tissue tearor homogenizer in membrane buffer (10 mM Tris, 100 mM NaCl, and 1 mM EDTA; pH 7.4), and centrifuged at 20,000 g for 30 minutes at 4° C. and frozen at −80° C. until use. Prior to use, the pellets were resuspended in assay buffer (50 mm Tris, 100 mm NaCl, 5 mM MgCl2, and 1 mM EDTA; pH 7.4) and homogenized with a dounce homogenizer and 50 μg incubated with 0.1 nM [35 S]GTPγS, 10 nM GDP, and the appropriate concentration of agonist for 20 minutes at 30° C. To test inhibition, all samples were incubated with 100 nM U69,593 as well as the appropriate concentration of compound. Membranes with bound [35 S]GTPγS were collected on Whatman GF/B filter paper (Brandel, Gaithersburg, Md., USA) utilizing a Brandel harvester. Bound [35 S]GTPγS was quantified using a TriCarb-2900TR scintillation counter (Packard, Downers Grove, Ill., USA) following addition of 4 mL ReadySafe scintillation fluid (Beckman Coulter, Indianapolis, Ind., USA). […] NA indicates not applicable. For each compound, curve fitting was done in Microcal Origin 17.0 software using logistic sigmoidal fit, to determine EC50 and maximal percent stimulation, which in turn was normalized to the maximal percent stimulation of the test full agonist compound U69,593 to determine % efficacy. β2-Arrestin Experiments were conducted using the PathHunter Detection Kit obtained from DiscoverX. Cells stably expressing kappa, mu or delta opioid receptor constructs (PathHunter U2OS hOPRK1, CHO-K1 rOPRM1 and CHO-K1 OPRD1 β-arrestin cell line, DiscoverX, Fremont, Calif., USA) were plated in 96- or 384-well plates. Cells were stimulated with the compounds for 90 minutes at 37° C. To test inhibition, all samples were incubated with 100 nM U69,593 as well as the appropriate concentration of compound. Cells were then incubated for 60 minutes in the presence of galoctosidase substrate, yielding chemiluminescent product. Chemiluminescence was measured using a Synergy Neo microplate reader (BioTek, Winooski, Vt., USA). Antagonism assays were done in the same manner, in the presence of 300 nM U69,593, 1 μM DAMGO or 1 μM DPDPE for KOP-R, MOP-R or DOP-R assays, respectively. […] NA indicates not applicable. […]

[3] = molecular target: T3, kappa opioid receptor (PathHunter U2OS hOPRK1 membranes) (Homo sapiens, UniProt P41145); assay: Tritiated U69,593 binding for KOP-R membranes
T3 construct: host or cells: U2OS (PathHunter U2OS hOPRK1 β-arrestin cell line)
Description: Tritiated U69,593 binding for KOP-R membranes; tritiated DAMGO binding for MOP-R membranes; and tritiated DPDPE binding for DOP-R membranes:
as §1

[4] = read-out: β-arrestin coupling % efficacy at 10 μM
[5] = read-out: β-arrestin coupling % efficacy
[6] = 1.0 nM [3H]U69,593, 60 minutes at 30° C., read-out: Binding IC50

T3 sequence (P41145 whole entry): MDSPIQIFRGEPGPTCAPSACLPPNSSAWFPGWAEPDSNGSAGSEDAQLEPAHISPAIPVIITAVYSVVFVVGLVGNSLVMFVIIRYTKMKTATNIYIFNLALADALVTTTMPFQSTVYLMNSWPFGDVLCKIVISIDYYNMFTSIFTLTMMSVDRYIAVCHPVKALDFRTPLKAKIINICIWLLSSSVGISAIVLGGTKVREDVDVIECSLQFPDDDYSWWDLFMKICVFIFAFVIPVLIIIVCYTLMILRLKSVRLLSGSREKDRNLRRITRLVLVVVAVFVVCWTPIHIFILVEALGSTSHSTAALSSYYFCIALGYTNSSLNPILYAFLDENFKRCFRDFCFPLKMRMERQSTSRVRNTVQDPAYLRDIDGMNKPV
T2 sequence (P41145 whole entry): as above
T1 sequence (P41145 whole entry): as above

SMILES | EC50 [1] [nM] | Emax [1] [%] | Emax at 10 µM [2, 4] [%] | IC50 [3] [nM] | EC50 [2] [nM] | Emax at 10 µM [2, 5] [%] | IC50 [3, 6] [nM] | β-arrestin coupling % efficacy [2] | β-arrestin coupling EC50 [2]
O=C(Cc1ccc(Cl)c(Cl)c1)N1CCN(CC2CC2)[C@@H]2COC[C@H](N3CCCC3)[C@H]21 (racemic) [Example 5A70] | 19 | 90 | 50 | 71 |  |  |  |  | 
O=C(Cc1ccc(F)c(Cl)c1)N1CCN[C@@H]2COC[C@H](N3CCCC3)[C@H]21 (racemic) [Example 5A25] | 571 | 93 |  |  | 13600 | 29 | 249 |  | 
O=C(Cc1cccc(C(F)(F)F)c1)N1CCN[C@@H]2COC[C@H](N3CCCC3)[C@H]21 (racemic) [Example 5A26] | 130 | 108 |  |  | 3260 | 42 | 112 |  | 
O=C(Cc1ccc(Cl)c(Cl)c1)N1CCN(S(=O)(=O)C2CC2)[C@@H]2COC[C@H](N3CCCC3)[C@H]21 (racemic) [Example 5A52] | 3 | 101 |  | 5.1 | 3300 | 79 |  |  | 
CCN(CC)[C@H]1COC[C@H]2NCCN(C(=O)Cc3ccc(Cl)c(Cl)c3)[C@@H]21 (racemic) [Example 5A64] | 2120 | 68 |  |  |  |  | 1920 | No stim | 
Cc1cc(CC(=O)N2CCN[C@@H]3COC[C@H](N4CCCC4)[C@H]32)ccc1Cl (racemic) [Example 5A58] | 261 | 161 | 20 |  |  |  | 116 |  | 
COC(=O)N1CCN(C(=O)Cc2ccc(Cl)c(Cl)c2)[C@H]2[C@H]1COC[C@@H]2N1CCCC1 (racemic) [Example 5A67] | 12 | 85 |  | 41 | 5200 | 85 |  |  | 
O=C(Cc1cc(Cl)cc(Cl)c1)N1CCN[C@@H]2COC[C@H](N3CCCC3)[C@H]21 (racemic) [Example 5A32] | 464 | 66.5 |  |  |  |  | 410 | No stim | No stim
O=C(Cc1ccc(Cl)c(Cl)c1)N1CCN(CC2CCCC2)[C@@H]2COC[C@H](N3CCCC3)[C@H]21 (racemic) [Example 5A54] | 31 | 73 | 20 | 73 |  |  |  |  | 
Cc1ccc(CC(=O)N2CCN[C@@H]3COC[C@H](N4CCCC4)[C@H]32)cc1C (racemic) [Example 5A40] | 1700 | 111 |  |  |  |  | 719 | No stim | No stim
O=C(Cc1cccc(Cl)c1)N1CCN[C@H]2COC[C@@H](N3CCCC3)[C@@H]21 (single isomer, unassigned) [Example 5A24B] | 1370 | 102 | 0 |  |  |  | 1130 |  | 
CC(C)CN1CCN(C(=O)Cc2ccc(Cl)c(Cl)c2)[C@H]2[C@H]1COC[C@@H]2N1CCCC1 [Example 5A71] | 14 | 93 | 40 | 27 |  |  |  |  | 
CN(CC1CC1)[C@H]1COC[C@H]2NCCN(C(=O)Cc3ccc(Cl)c(Cl)c3)[C@@H]21 (racemic) [Example 5A50] | 93 | 79 |  | 297 |  |  |  | No stim | 
